Assay [1] deals with Matrix Metalloproteinase 2 (MMP-2). Kind of assay: ELISA of MMP-2 in conditioned media of lung fibroblasts. It counts as cell-based, human. Particulars: NLF, LL29 and LL97A cells, 25 μM, in the presence of TGFβ. The text has this:
Normal human lung fibroblasts (ScienCell Research Laboratory 3420), lung fibroblasts from idiopathic pulmonary fibrosis (IPF) patients LL29 (AnHa) (ATCC) and LL97A (ALMy) (ATCC) were maintained in DMEM F12 (Gibco 10565) supplemented with 15% fetal bovine serum (FBS) (Gibco 10437-028) plus Pen-Strep (1%) (Gibco 15140-122). Cells were split every 3 to 4 days at 1:2/1:3 dilution each time. The day before the experiment, cells were trypsinized using Trypsin-EDTA (0.05%) (Gibco 25300-054) and plated on 24-well […] at 1×10^5 cells per well.
Compounds II-3 and I-1 were first solubilized in 100% DMSO as 50 mM solution, and then diluted 1 to 200 in 1% BSA as a 10× stock solution of […], and series stock dilution (1 to 2 dilution) were carried out as needed. […] The total RNA was harvested, and the relative mRNA expression levels were assessed via RT-PCR with HPRT as the internal control. […] Significance was determined by student's t-test in comparison to control.
Conditioned media were collected at the end of the experiment. The levels of Matrix Metalloproteinase 2 (MMP-2) (R&D System MMP200) and human Tissue Inhibitor of Metalloproteinase 2 (TIMP-2) (R&D System DTM200) were measured according to the manufacturer's instruction. […] The ELISA was measured on a Victor×5 multilabel plate reader (PerkinElmer) at an absorbance of 450 nm with background correction at 550 nm. […]
A general note: ELISA stands for enzyme-linked immunosorbent assay.

The next assay deals with ΔF508 CFTR (Homo sapiens, UniProt P13569, DEL508-508). The experiment in a line: Ussing chamber short circuit current in Fisher Rat Thyroid epithelial cells overexpressing ΔF508-CFTR. The format is cell-based. Further details: expressed in transfected cells; host or cells: Fisher Rat Thyroid (FRT) epithelial cells, stably transfected. Particulars: FRT cells. How it is done:
The most prevalent disease causing mutation of the CF transmembrane conductance regulator (CFTR) chloride channel is the deletion of phenylalanine at position 508 in the primary sequence of CFTR (ΔF508-CFTR). This mutation causes a trafficking defect resulting in a severe reduction of ΔF508-CFTR protein at the cell surface. The trafficking defect can be corrected by incubation at low temperature (27° C. overnight) or pharmacologically by small molecules and CFTR correctors. Chloride transport function of Fisher Rat Thyroid (FRT) epithelial cells overexpressing ΔF508-CFTR in monolayers grown on Snapwell™ filter inserts will be monitored as the CFTR agonist evoked short circuit (ISC) current output of an Ussing epithelial voltage clamp apparatus. An objective of this study is to measure the ability of test compounds to restore function to defective ΔF508-CFTR in FRT epithelial cell monolayers.
Measurement of corrector efficacy is divided into two phases. The initial phase is incubation of epithelia with the test compounds for a period of time (that can range from 2 hours to one or two days) in a 37° C. incubator and the second phase is measurement of epithelial ΔF508-CFTR chloride channel current with an epithelial voltage clamp (Ussing assay). The short circuit current (ISC) is measured under short circuit conditions (0 mV transepithelial potential). The ISC magnitude is an index of corrector efficacy and is compared to vehicle and positive control.
Cryopreserved FRT cells stably transfected with ΔF508-CFTR cDNA (Pedemonte et al. (2005) J. CLIN. INVEST., 115, p. 2564-2571) were expanded and plated on Snapwell™ filters for measurement of short circuit current in an Ussing apparatus (Physiologic Instruments, Inc., Sand Diego, Calif.). Cells were grown in Coon's modification of Ham's F-12 media supplemented with zeocin and G-418.
To conduct the assay, a compound of the invention was solubilized as follows: • 1) Prepare 25 mM stock solution in 100% DMSO. • 2) Dilute 12 μL of 25 mM stock solution in 1.20 mL of FBS to make 250 μM intermediate dilution 10× stock (1% DMSO, 99% FBS). Gently vortex all solutions until the solution becomes clear. • 3) Prepare final dilution of 10 μM in 10 mL of Coon's media per well (4 wells×2 mL per well bottom+0.2 mL per insert top=8.8 mL and 1.2 mL reserve for handling losses) by addition of 400 μL of 10× stock and 600 μL of 10× carrier (1% DMSO, 99% FBS) to 9000 μL of Coon's media.
For this example, the test compound was solubilized and added to the appropriate inserts of Ussing chambers (n=4 for each test compound, final test concentration of 10 μM). A DMSO vehicle control and a positive control (VX-809 at 3 μM) were also used. For this particular example, all the test articles, including the positive control, were incubated with the cells for a period of 4 hours. The FRT cell monolayers grown on Snapwell™ filter inserts were transferred to Physiologic Instruments Ussing recording chambers (Physiologic Instruments, Inc., San Diego, Calif.) and superfused with HB-PS on the basolateral side and 78CF-PS on the apical side. One or more 6-channel or 8-channel Physiologic Instruments VCC MC6 or VCC MC8 epithelial voltage clamps were then used in combination to record the short circuit current (ISC) during the entire run. To initiate the ISC measurement, amphotericin (100 μM) was added to the basolateral side of the Snapwell™ filter insert to permeabilize the epithelial cells for 15 min. Forskolin (10 μM), IBMX (100 μM), Genistein (20 μM) and the CFTRinh-172 (20 μM) were added sequentially after the following incubation periods (15 min, 20 min, 10 min, 15 min and 15 min respectively). Data acquisition and analyses were performed using iWorx data acquisition hardware and Labscribe 2 software (iWorx, Dover, N.H.). […]

The mark [2] stands for this setting: II-3 (10 μM)+VX-809 (3 μM)+VX-770 (100 nM), 24 hours, positive control VX-809+VX-770 = 100%.

Chain of ΔF508 CFTR (P13569 with tags, fused parts or gaps DEL508-508): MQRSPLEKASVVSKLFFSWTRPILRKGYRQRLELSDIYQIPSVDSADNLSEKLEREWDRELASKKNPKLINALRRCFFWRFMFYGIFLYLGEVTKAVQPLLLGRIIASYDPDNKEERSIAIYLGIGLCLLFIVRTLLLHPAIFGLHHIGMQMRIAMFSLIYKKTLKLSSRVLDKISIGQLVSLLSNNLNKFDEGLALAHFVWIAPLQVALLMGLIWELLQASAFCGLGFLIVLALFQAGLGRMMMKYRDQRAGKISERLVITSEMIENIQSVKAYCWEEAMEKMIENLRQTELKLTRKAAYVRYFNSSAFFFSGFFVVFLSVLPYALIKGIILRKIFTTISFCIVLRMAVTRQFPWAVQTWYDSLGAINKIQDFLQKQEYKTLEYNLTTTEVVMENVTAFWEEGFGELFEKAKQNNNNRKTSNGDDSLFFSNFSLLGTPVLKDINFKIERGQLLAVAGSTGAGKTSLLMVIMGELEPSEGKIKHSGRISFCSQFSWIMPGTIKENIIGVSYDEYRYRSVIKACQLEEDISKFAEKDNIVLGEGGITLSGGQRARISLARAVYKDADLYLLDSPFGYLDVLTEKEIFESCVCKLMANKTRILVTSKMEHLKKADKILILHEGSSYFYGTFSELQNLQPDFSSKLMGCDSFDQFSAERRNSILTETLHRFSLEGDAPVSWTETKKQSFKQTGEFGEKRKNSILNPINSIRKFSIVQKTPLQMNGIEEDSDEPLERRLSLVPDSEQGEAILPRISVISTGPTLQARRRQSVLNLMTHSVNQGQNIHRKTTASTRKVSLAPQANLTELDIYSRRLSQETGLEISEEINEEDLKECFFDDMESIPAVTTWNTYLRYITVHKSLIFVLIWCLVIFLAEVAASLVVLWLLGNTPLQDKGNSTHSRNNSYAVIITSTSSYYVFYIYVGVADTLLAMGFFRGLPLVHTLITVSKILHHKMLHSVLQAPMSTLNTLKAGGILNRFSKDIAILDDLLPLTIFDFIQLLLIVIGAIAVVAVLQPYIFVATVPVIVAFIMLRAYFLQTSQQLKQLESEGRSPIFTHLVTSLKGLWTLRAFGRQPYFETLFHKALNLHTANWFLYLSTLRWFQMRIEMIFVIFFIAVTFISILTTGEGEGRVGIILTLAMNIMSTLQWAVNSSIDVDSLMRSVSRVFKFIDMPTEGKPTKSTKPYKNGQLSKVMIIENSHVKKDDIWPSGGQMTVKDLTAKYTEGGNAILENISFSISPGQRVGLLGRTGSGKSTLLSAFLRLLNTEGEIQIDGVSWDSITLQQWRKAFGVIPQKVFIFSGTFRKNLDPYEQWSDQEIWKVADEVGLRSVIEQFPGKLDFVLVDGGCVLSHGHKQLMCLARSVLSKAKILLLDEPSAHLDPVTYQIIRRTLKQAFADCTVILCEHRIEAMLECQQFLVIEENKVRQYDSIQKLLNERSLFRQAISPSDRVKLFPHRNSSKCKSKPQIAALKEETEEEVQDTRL

For `CC/C=C\C/C=C\C/C=C\C/C=C\C/C=C\C/C=C\CCC(=O)NCCSSC(C)(C)CNC(=O)c1cccnc1` [II-3, N-(2-((2-((4Z,7Z,10Z,13Z,16Z,19Z)-docosa-4,7,10,13,16,19-hexaenamido)ethyl)disulfanyl)-2-methylpropyl)nicotinamide], the “MMP-2 level in conditioned media” value in assay [1] is “marked reduction”. Moreover, the “short circuit current trace” value on ΔF508 CFTR (10 μM with VX-770 or VX-809+VX-770, 24 hours) was “functionally active”. The “steady state response upon the addition of Forskolin” value at ΔF508 CFTR (II-3 (10 μM)+VX-770 compared with vehicle+VX-770, 24 hours) is recorded as “modest response”. For the same molecule, on ΔF508 CFTR (setting [2]), the “steady state response upon the addition of Forskolin, % of control” value is given as 143.6% and the “steady state response upon the addition of the CFTRinh-172, % of control” value came to 144.0%.

These data come from patent US10251845B2, “Fatty acid cysteamine conjugates and their use as activators of autophagy” (Catabasis Pharmaceuticals, Inc., priority 2014, dated 2019).
